Data reported in patent US5565426A, “Peptide compounds active in cell adhesion processes” (Adir et Compagnie, priority 1992, dated 1996).
Non-standard residues stand in square brackets, D forms with d. Residues, ends and D or L forms follow the SMILES beside them. GABA = NCCCC(=O)O

Assays:
[1] = test system: mice (CD-1), collagen/adrenaline-induced thromboembolism; experiment: Thromboembolism in mice (collagen + adrenaline i.v.); format: in vivo; settings: for dose from which formation of microthrombi in the lungs is inhibited: histological examination of lungs; for dose that protects half of the mice: i.v., injected with collagen + adrenaline, death or paralysis at 15 min
Protocol: Male mice (CD-1) weighing from 28 to 32 g are used for these experiments. The animals are maintained at from 26° to 28° C. for the 30 minutes preceding the experiment. A combination of collagen (150 μg/ml) and adrenaline (100 μmol/l) causes the mice to die by paralysis. Each mouse receives 0.1 ml of that combination, which gives a dose of 1.8 μg of adrenaline and 15 μg of collagen per mouse. The incidence of death or paralysis is observed 15 minutes after the intravenous injection (i.v.) of the combination (adrenaline+collagen) into the caudal vein. The peptides are injected at the same time as the combination of agonists. In the case of the tests relating to the duration of action, the mice are pre-treated with the peptides i.v. in a volume of 0.1 ml. A histological examination of the lungs is carried out in order to visualise the presence of microthrombi in the vessels of the microcirculation, which are attributable to the adrenaline-collagen combination. At the end of the experiment, the lungs are rapidly removed, fixed in formalin and then enclosed in paraffin. 5 μm sections are made and coloured with haematoxylin/eosin. The sections are examined and the presence or absence of microthrombi is noted. The X^2 test (Fischer) is used to determine whether there is a significant difference between the effects in mice that have received the peptides and those that have not.

[2] = test system: formation of a blood clot in the mesenteric artery of the rat; experiment: Experimental thrombosis in the mesenteric artery of the rat; format: in vivo; settings: venous infusion for 5 min
Protocol: The experiments were carried out on male rats (250 to 400 g). The animals are anaesthetised with pentobarbitone (50 mg/kg i.p.). A catheter is installed in the jugular vein in order to permit i.v. injections.
The preparation of the mesenteric artery and the induction of thrombosis are carried out in accordance with the method described by Bourgain et al. Adv. Exp. Med. Biol., 180, 635-649, (1984). A longitudinal incision is made in the abdomen and part of the intestine is exposed. Using a binocular magnifying device, a branch of the mesenteric artery from 200 to 500 μm in diameter is prepared. The adjacent vein is separated and the adipose tissues are removed; a 2 mm segment of artery is thus prepared. The animal is then installed under a microscope and the segment of the mesenteric artery is perfused with physiological solution (37° C.) at 5 ml/min. The segment can be observed for several hours. The images are recorded using a video camera and a magnetoscope.
After installation and stabilisation of the preparation, a platinum electrode is placed on each side of the arteriole wall using a micromanipulator. An endothelial lesion is then induced by applying for 60 seconds an electric current of 40 μA, the current being reversed every 5 seconds. […] Normally, no thrombus formation is observed on applying the electric current.
The formation of a clot is then induced by perfusion with ADP (adenosine diphosphate) for 2 minutes. The ADP is used at a final molarity of 300 μM. The clot forms and then, after 2 to 5 minutes, disappears by embolisation. The vessel then re-assumes a normal state; there is no spontaneous formation of a clot.
The effect of the products on the formation of thrombi was tested by treating the animals by venous infusion for 5 minutes. The infusion starts […] minute before perfusion with ADP.
The recorded images are analysed and the size of the clots is expressed in arbitrary surface values. The measurements are carried out at determined times during and after the perfusion of ADP. A comparison can therefore be made of the size of the clots in the control state and after the infusion of the product.

Row | SMILES | dose from which formation of microthrombi in the lungs is inhibited [1] [mg/mouse] | dose that protects half of the mice [1] [mg/mouse] | times more active than the reference substance (RGDW) ([1]; ratio of doses protecting half of the mice) [times] | Percentage inhibition of the formation of a blood clot in the mesenteric artery of the rat ([2]; 2 mg/kg/min) [%] | Percentage inhibition of the formation of a blood clot in the mesenteric artery of the rat ([2]; 5 mg/kg/min) [%] | Percentage inhibition of the formation of a blood clot in the mesenteric artery of the rat ([2]; 10 mg/kg/min) [%] | duration of action ([1]; dose of 1 mg, i.v. pre-treatment)
1 | N=C(N)NCCC[C@H](NC(=O)CCCN)C(=O)NCC(=O)N[C@@H](CC(=O)O)C(=O)N[C@@H](Cc1c[nH]c2ccccc12)C(=O)O [Example 11, H2 N--(CH2)3 --CO--Arg--Gly--Asp--Trp--OH] (H-[GABA]RGDW-OH) | ≥ 0.03 | 0.03 | 10 |  |  |  | 
2 | NCCCC[C@H](NC(=O)CCCN)C(=O)NCC(=O)N[C@@H](CC(=O)O)C(=O)N[C@@H](Cc1c[nH]c2ccccc12)C(=O)O [Example 12, H2 N--(CH2)3 --CO--Lys--Gly--Asp--Trp--OH] (H-[GABA]KGDW-OH) |  |  |  | 17 | 33 | 56 | 
3 | N=C(N)NCCC[C@H](N)C(=O)NCC(=O)N[C@@H](CC(=O)O)C(=O)N[C@@H](Cc1c[nH]c2ccccc12)C(=O)O [H--Arg--Gly--Asp--Trp--OH, reference compound] (H-RGDW-OH) | ≥ 1 | 0.3 |  |  |  | 36 | less than 5 minutes
